# From US9815841B2, “Compounds” (GLAXOSMITHKLINE INTELLECTUAL PROPERTY DEVELOPMENT LIMITED, priority 2014, dated 2017)
# Target: T1, purified recombinant 6HIS-Tev-LRRK2 (1326-2527) (Homo sapiens, UniProt Q5S007)
# T1 construct: A LRRK2 cDNA encoding residues 1326-2527 was received from Dundee University; made in house; host or cells: Spodoptera frugiperda (Sf9) insect cells, baculovirus (pFB-HTb)
# T1 sequence (Q5S007 1326-2527): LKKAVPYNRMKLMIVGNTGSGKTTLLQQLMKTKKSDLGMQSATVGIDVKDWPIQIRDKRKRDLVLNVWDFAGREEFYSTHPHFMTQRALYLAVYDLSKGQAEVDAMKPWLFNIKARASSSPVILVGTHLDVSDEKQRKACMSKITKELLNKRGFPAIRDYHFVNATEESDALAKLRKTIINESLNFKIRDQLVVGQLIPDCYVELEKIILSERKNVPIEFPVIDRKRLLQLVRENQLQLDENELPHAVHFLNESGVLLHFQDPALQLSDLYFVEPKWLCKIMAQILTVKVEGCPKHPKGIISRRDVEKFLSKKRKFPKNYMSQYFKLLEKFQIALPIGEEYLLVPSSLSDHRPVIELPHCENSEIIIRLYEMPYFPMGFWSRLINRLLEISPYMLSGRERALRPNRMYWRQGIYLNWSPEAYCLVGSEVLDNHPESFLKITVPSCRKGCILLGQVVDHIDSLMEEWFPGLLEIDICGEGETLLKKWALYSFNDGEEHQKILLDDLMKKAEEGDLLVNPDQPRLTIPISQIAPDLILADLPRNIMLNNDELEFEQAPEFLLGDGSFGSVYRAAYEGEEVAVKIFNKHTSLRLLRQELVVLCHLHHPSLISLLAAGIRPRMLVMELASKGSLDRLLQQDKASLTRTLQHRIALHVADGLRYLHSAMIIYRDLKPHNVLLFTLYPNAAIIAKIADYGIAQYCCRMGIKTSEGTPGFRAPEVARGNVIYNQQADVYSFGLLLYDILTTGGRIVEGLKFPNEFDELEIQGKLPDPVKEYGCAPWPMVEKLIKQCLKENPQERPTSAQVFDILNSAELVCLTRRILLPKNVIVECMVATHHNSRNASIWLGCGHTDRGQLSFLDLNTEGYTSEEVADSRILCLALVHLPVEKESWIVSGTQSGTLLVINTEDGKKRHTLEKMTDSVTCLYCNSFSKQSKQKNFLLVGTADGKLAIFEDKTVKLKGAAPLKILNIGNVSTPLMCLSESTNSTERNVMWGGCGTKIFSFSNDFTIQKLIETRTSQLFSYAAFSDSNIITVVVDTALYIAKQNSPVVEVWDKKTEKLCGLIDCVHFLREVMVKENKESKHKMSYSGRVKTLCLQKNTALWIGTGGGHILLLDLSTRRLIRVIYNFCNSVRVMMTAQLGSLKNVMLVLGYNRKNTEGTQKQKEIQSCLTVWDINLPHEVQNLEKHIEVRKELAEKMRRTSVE
# Experiment: Recombinant LRRK2 enzyme peptide substrate TR-FRET assay
# Assay type: biochemical
# Details: 60 nM LRRK2 (1326-2527), 1 uM Biotin-longer LRRKtide, 10 uM ATP; read-out: recombinant LRRK2 enzyme peptide substrate TR-FRET assay (pIC50) (converted)
# Experimental: This gene fragment was subcloned into pFB-HTb (Invitrogen) using BamHI and NotI restriction sites. The LRRK2 plasmid was recombined into the baculovirus genome according to the BAC-to-BAC protocol described by Invitrogen. Transfection into Spodoptera frugiperda (Sf9) insect cells was performed using Cellfectin (Invitrogen), according to the manufacturer's protocol to generate P1 and P2 baculovirus stocks.
# Sf9 cells were grown in HyClone SFX (Thermo Scientific) growth media at 27° C., 80 rpm in shake flask until of a sufficient volume to inoculate a bioreactor. […] The cells were infected with P2 Baculovirus at a multiplicity of infection (MOI) of 3. The cultivation was continued for a 48 hour expression phase. The infected cells were removed from the growth media by centrifugation at 2500 g using a Sorvall RC 3C Plus centrifuge at 2500 g for 20 minutes. The cell pellet was immediately frozen and subsequently supplied for purification.
# A 260 g pellet was allowed to thaw in a water bath at 27° C. with 800 ml lysis buffer/buffer A (50 mm Tris-HCl pH 8.5, 300 mM NaCl, 1 mm DTT, 10% glycerol, 1 ml/L calbiochem complete protease inhibitor cocktail and benzonase (50 ul/800 ml)) before being dounce homogenised on ice using 20 strokes per 100 ml. The suspension was packed in ice and sonicated at 50% amplitude for 3 min 10 sec on/off using a ¾″ probe. The suspension was then centrifuged at 100,000 g for 90 min, at 4° C.
# The lysate (700 ml) was decanted from the insoluble pellet and contacted for 3 h at 4 C with 10 ml His bind Ni NTA resin by end over end mixing. The resin was recovered by centrifugation, 3000 g, 5 min at 4 C, and packed in an XK16 column. The column was then washed with 10 column volumes buffer A, 10 column volumes buffer B (buffer A+1M NaCl) and 10 column volumes buffer C (buffer A+20 mM imidazole). The column was then eluted with 15 column volumes buffer D (buffer A+300 mM imidazole) collecting 2 ml fractions. All washes and elution were conducted at 4 ml/min.
# Fractions identified by SDS-PAGE as containing protein of interest were pooled and loaded directly onto a 320 ml SEC Superdex 200 pg column that was pre-equilibrated with buffer E (50 mM Tris-HCl pH 8.5, 300 mM NaCl, 10% glycerol, 1 mM DTT). The column was loaded and eluted with 1.2 column volumes buffer E at 2 ml/min collecting 2 ml fractions. Fractions identified by SDS-PAGE as containing protein of interest were tested for activity.
# Production of Biotin-Longer LRRKtide
# The resulting crude peptide was cleaved from the resin using a 95:2.5:2.5 mix of trifluoroacetic acid:triisopropylsilane:water.
# Recombinant LRRK2 Enzyme Peptide Substrate TR-FRET Assay
# Assay Protocol • 1. A 10 mM test compound was dissolved in 100% DMSO and serially diluted 1 in 4. 100 nL was then added to a 384 well low volume black plate, excluding columns 6 and 18. 100 nL of DMSO was added to columns 6 and 18 as controls wells. […] Test plates were then incubated for 30 minutes at room temperature. • 3. 3 uL ‘substate solution’ containing 2 uM Biotin-longer LRRKtide peptide substrate and 20 uM ATP was added to all wells of the plate using a multidrop combi dispenser giving a final assay concentration of 1 uM Biotin-longer LRRKtide and 10 uM ATP. Test plates were then incubated for 2 hours at room temperature. (Incubation may vary depending on rate and linearity of reaction with different enzyme batches). • 4. […] Data is analysed using ActivityBase software (IDBS). Dilutions and concentrations of reagents determined on a batch to batch basis
row,IC50 [nM],Compound
1,≤ 10,"CCOc1nc(Nc2ccc(C(=O)N3CCN(C)[C@@H](C)C3)cc2OC)nc2[nH]ccc12 [Example E41, (S)-(3,4-dimethylpiperazin-1-yl)(4-((4-ethoxy-7H-pyrrolo-[2,3-d]-pyrimidin-2-yl)amino)-3-methoxyphenyl)methanone]"
2,≤ 10,"CCOc1nc(Nc2ccc(C(=O)N3CCC4(CC3)CC4COC)cc2OC)nc2[nH]ccc12 (single isomer, unassigned) [Example E52, (4-((4-ethoxy-7H-pyrrolo-[2,3-d]-pyrimidin-2-yl)amino)-3-methoxyphenyl)(1-(methoxymethyl)-6-azaspiro-[2.5]-octan-6-yl)methanone]"
3,≤ 10,"CCOc1nc(Nc2ccc(C(=O)N3CC4CC4(CO)C3)cc2OC)nc2[nH]ccc12 (single isomer, unassigned) [Example E46, (4-((4-ethoxy-7H-pyrrolo-[2,3-d]-pyrimidin-2-yl)amino)-3-methoxyphenyl)(1-(hydroxymethyl)-3-azabicyclo-[3.1.0]-hexan-3-yl)methanone]"
4,≤ 10,"CCOc1nc(Nc2ccc(C(=O)N3[C@H](C#N)C[C@@H]4C[C@@H]43)cc2OC)nc2[nH]ccc12 [Example E66, (1 S,3S,5S)-2-(4-((4-ethoxy-7H-pyrrolo-[2,3-d]pyrimidin-2-yl)amino)-3-methoxybenzoyl)-2-azabicyclo-[3.1.0]-hexane-3-carbonitrile]"
5,≤ 10,"CCOc1nc(Nc2cc(F)c(C(=O)N3CCN(C)CC3)cc2OC)nc2[nH]ccc12 [Example E5, (4-((4-ethoxy-7H-pyrrol-[2,3-d]pyrimidin-2-yl)amino)-2-fluoro-5-methoxyphenyl)(4-methylpiperazin-1-yl)-methanone]"
6,≤ 10,"CCOc1cc(C(=O)N2CCN(C)CC2)ccc1Nc1nc(OCC)c2cc[nH]c2n1 [Example E25, (3-ethoxy-4-((4-ethoxy-7H-pyrrolo-[2,3-d]pyrimidin-2-yl)amino)phenyl)(4-methylpiperazin-1-yl)methanone]"
7,≤ 10,"CCOc1nc(Nc2ccc(C(=O)N3CCC(F)CC3)cc2OC)nc2[nH]ccc12 [Example E36, (4-((4-ethoxy-7H-pyrrolo-[2,3-d]pyrimidin-2-yl)amino)-3-methoxyphenyl)(4-fluoropiperidin-1-yl)methanone]"
8,≤ 10,"CCOc1nc(Nc2ccc(C(=O)N3CCC(COC)CC3)cc2OC)nc2[nH]ccc12 [Example E42, (4-((4-ethoxy-7H-pyrrolo-[2,3-d]-pyrimidin-2-yl)amino)-3-methoxyphenyl)(4-(methoxymethyl)piperidin-1-yl)methanone]"
9,≤ 10,"CCOc1nc(Nc2ccc(C(=O)N3CCN(C)CC3)cc2OCC2CC2)nc2[nH]ccc12 [Example E8, (3-(cyclopropylmethoxy)-4-((4-ethoxy-7H-pyrrolo-[2,3-d]-pyrimidin-2-yl)amino)phenyl)(4-methylpiperazin-1-yl)-methanone]"
10,≤ 10,"CCOc1nc(Nc2ccc(C(=O)N3CCC[C@@H]3COC)cc2OC)nc2[nH]ccc12 [Example E35, (R)-(4-((4-ethoxy-7H-pyrrolo-[2,3-d]pyrimidin-2-yl)amino)-3-methoxyphenyl)(2-(methoxymethyl)pyrrolidin-1-yl)methanone]"
11,≤ 10,"CCOc1nc(Nc2ccc(C(=O)N3CCN(C)CC3)cc2OC(F)F)nc2[nH]ccc12 [Example E7, (3-(difluoromethoxy)-4-((4-ethoxy-7H-pyrrolo-[2,3-d]-pyrimidin-2-yl)amino)phenyl)(4-methylpiperazin-1-yl)-methanone]"
12,≤ 10,"CCOc1nc(Nc2ccc(C(=O)N3CCCC4(COC4)C3)cc2OC)nc2[nH]ccc12 [Example E44, (4-((4-ethoxy-7H-pyrrolo-[2,3-d]pyrimidin-2-yl)amino)-3-methoxyphenyl)(2-oxa-6-azaspiro-[3.5]nonan-6-yl)methanone]"
13,≤ 10,"CCOc1nc(Nc2ccc(C(=O)N3CC4CC4(COC)C3)cc2OC)nc2[nH]ccc12 (single isomer, unassigned) [Example E64, (4-((4-ethoxy-7H-pyrrolo-[2,3-d]pyrimidin-2-yl)amino)-3-methoxyphenyl)-(1-(methoxymethyl)-3-azabicyclo[3.1.0]hexan-3-yl)methanone]"
14,≤ 10,"CCOc1nc(Nc2ccc(C(=O)N3CCN(C)[C@H](C)C3)cc2OC)nc2[nH]ccc12 [Example E29, (R)-(3,4-dimethylpiperazin-1-yl)-(4-((4-ethoxy-7H-pyrrolo-[2,3-d]-pyrimidin-2-yl)amino)-3-methoxyphenyl)methanone]"
